Experimental data taken from US6743809B2, “Indole Derivatives useful for the treatment of CNS disorders” (H. Lundbeck A/S, priority 2000, dated 2004).

Target: T1, human cloned dopamine D4.2 receptors (Homo sapiens, UniProt P21917, DEL265-296)
T1 construct: expressed in transfected cells; host or cells: CHO cells
T1 sequence (P21917 with tags, fused parts or gaps DEL265-296): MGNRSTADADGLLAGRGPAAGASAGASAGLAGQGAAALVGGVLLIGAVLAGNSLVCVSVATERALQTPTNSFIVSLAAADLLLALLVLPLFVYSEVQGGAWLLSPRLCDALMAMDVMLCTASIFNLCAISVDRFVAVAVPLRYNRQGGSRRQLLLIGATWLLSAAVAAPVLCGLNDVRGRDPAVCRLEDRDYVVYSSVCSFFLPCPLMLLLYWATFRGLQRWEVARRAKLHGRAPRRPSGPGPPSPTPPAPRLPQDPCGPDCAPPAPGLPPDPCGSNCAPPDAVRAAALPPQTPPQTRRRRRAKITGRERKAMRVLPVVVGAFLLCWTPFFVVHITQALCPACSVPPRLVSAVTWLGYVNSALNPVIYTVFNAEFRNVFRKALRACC
Assay: Inhibition of the binding of [3H]YM-09151-2 to human dopamine D4 receptors
Details: 50 nM compound; [3H]YM-09151-2 0.06 nM; membranes of CHO-cells
Method: Inhibition of the Binding of [^3H]YM-09151-2 to Human Dopamine D4 Receptors
By this method, the inhibition by drugs of the binding of [^3H]YM-09151-2 (0.06 nM) to membranes of human cloned dopamine D4.2 receptors expressed in CHO-cells is determined in vitro. The method is modified from NEN Life Science Products, Inc., technical data certificate PC2533-10/96.

Row | Compound | inhibition at 0.05 µM [%] | % inhibition of binding at 50 nM [%]
1 | Cc1ccc(C(=O)Nc2ccc(C)c(CCN3CCC(c4c[nH]c5cc(Cl)ccc45)CC3)c2)cc1 [Compound 3u, 3-(1-{2-[2-Methyl-5-(4-methylbenzoylamino)phenyl]ethyl}piperidin-4-yl)-6-chloro-1H-indole] | 86 | –
2 | Cc1ccc(NC(=O)C2CCCC2)cc1CCN1CCC(c2c[nH]c3cc(Cl)ccc23)CC1 [Compound 3v, 3-[1-(2-{5-[(Cyclopentylmethanoyl)amino]-2-methylphenyl}ethyl)piperidin-4-yl]-6-chloro-1H-indole] | 95 | –
3 | Cc1ccc(NC(=O)N2CCOCC2)cc1CCN1CCC(c2c[nH]c3ccc(F)cc23)CC1 [Compound 3x, 3-(1-{2-[2-Methyl-5-(morfolin-4-ylmethanoylamino)phenyl]ethyl}piperidin-4-yl)-5-fluoro-1H-indole] | – | 90
4 | Cc1ccc(NC(=O)Nc2ccc(F)cc2)cc1CCN1CCC(c2c[nH]c3ccc(F)cc23)CC1 [Compound 3y, 3-[1-(2-{5-[3-(4-Fluorophenyl)ureido]-2-methylphenyl}ethyl)piperidin-4-yl]-5-fluoro-1H-indole] | 83 | –
5 | CCCCCC(=O)Nc1ccc(C)c(CCN2CCC(c3c[nH]c4c(Cl)cccc34)CC2)c1 [Compound 3z, 3-(1-{2-[5-(Hexanoylamino)-2-methylphenyl]ethyl}piperidin-4-yl)-7-chloro-1H-indole] | 91 | –

Other lines, results leading:

Row | inhibition at 0.05 µM [%] | % inhibition of binding at 50 nM [%] | Compound
6 | 48 | – | Cc1ccc(NC(=O)c2ccccc2)cc1CCN1CCC(c2c[nH]c3c(Cl)cccc23)CC1 [Compound 4d, 3-(1-{2-[5-(benzoylamino)-2-Methylphenyl]ethyl}piperidin-4-yl)-7-chloro-1H-indole]
7 | 44 | – | Cc1ccc(NC(=O)c2ccc(F)cc2)cc1CCN1CCC(c2c[nH]c3c(Cl)cccc23)CC1 [Compound 4e, 3-(1-{2-[5-(4-Fluorobenzoylamino)-2-methylphenyl]ethyl}piperidin-4-yl)-7-chloro-1H-indole]
8 | 48 | – | COc1ccc(C(=O)Nc2ccc(C)c(CCN3CCC(c4c[nH]c5c(Cl)cccc45)CC3)c2)cc1 [Compound 4f, 3-(1-{2-[5-(4-Methoxybenzoylamino)-2-methylphenyl]ethyl}piperidin-4-yl)-7-chloro-1H-indole]
9 | 73 | – | Cc1ccc(NC(=O)c2ccncc2)cc1CCN1CCC(c2c[nH]c3c(Cl)cccc23)CC1 [Compound 4h, 3-[1-(2-{2-Methyl-5-[(pyridin-4-ylmethanoyl)amino]phenyl}ethyl)piperidin-4-yl]-7-chloro-1H-indole]
10 | 85 | – | Cc1ccc(NC(=O)c2cccs2)cc1CCN1CCC(c2c[nH]c3c(Cl)cccc23)CC1 [Compound 4i, 3-[1-(2-{2-Methyl-5-[(thiophen-2-ylmethanoyl)amino]phenyl}ethyl)piperidin-4-yl]-7-chloro-1H-indole]
11 | 48 | – | Cc1ccc(NC(=O)c2ccsc2)cc1CCN1CCC(c2c[nH]c3c(Cl)cccc23)CC1 [Compound 4j, 3-[1-(2-{2-Methyl-5-[(thiophen-3-ylmethanoyl)amino]phenyl}ethyl)piperidin-4-yl]-7-chloro-1H-indole]
12 | 67 | – | Cc1ccc(NC(=O)c2cnns2)cc1CCN1CCC(c2c[nH]c3c(Cl)cccc23)CC1 [Compound 4k, 3-[1-(2-{2-Methyl-5-[(1-[1,2,3]thiadiazol-5-ylmethanoyl)amino]phenyl}ethyl)piperidin-4-yl]-7-chloro-1H-indole]

Target: T2, D4 receptor (Homo sapiens, UniProt P21917)
T2 sequence (P21917 1-419): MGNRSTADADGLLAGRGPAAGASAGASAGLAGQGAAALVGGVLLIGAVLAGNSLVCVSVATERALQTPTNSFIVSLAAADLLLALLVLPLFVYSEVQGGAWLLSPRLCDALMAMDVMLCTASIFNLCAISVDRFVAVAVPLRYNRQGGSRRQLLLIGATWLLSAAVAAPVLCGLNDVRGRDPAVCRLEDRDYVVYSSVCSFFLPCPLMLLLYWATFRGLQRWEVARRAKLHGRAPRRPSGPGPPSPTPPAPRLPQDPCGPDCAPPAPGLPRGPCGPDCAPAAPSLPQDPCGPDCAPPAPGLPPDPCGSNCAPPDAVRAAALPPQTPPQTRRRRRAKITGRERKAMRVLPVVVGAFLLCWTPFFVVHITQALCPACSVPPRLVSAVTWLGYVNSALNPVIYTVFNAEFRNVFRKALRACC
Assay: not given
Details: literature report, result in words; cited from earlier work

Row | Compound | functional activity at D4 receptor
13 | CC(C)Oc1cccnc1N(C)C1CCN(Cc2ccccc2)CC1 [Compound U-101958] | partial D4 receptor agonists
